This note sets out measurements from patent publication US20250064941A1, “SIGLEC LIGANDS, CONJUGATES, AND METHODS OF USE THEREOF” (Osprey Biopharmaceuticals, Inc., priority 2023, published 2025).

Assay [1] concerns the target T1, mouse Siglec-2-Fc-Avi (CD22) (Mus musculus, UniProt P35329).
T1 construct: made in house
T1 sequence (P35329 22-708 limits assumed): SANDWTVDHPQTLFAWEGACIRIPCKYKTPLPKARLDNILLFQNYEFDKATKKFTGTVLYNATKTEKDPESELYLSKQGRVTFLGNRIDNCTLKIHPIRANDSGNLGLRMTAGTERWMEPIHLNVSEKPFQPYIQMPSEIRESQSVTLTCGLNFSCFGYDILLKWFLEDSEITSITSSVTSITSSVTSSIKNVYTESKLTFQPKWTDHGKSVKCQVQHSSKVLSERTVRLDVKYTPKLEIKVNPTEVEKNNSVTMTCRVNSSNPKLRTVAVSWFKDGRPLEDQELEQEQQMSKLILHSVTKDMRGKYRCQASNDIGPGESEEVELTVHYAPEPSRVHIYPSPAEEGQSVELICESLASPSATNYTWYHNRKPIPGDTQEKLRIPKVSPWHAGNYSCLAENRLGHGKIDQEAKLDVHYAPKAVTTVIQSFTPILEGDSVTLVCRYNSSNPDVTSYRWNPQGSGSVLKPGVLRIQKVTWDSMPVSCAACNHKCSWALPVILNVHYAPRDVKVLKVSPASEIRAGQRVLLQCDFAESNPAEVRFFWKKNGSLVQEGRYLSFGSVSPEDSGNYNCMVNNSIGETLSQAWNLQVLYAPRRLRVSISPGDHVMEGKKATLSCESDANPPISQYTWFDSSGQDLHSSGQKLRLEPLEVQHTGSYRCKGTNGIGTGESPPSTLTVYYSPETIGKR
As to the kind of experiment: SPR binding affinity to mouse CD22. Particulars: steady-state analysis. Put shortly:
(§1)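 Steady-state fits gave the affinities. Before capture on a streptavidin surface, biotinylated CD22 had native sialic acids stripped (SialoExo, 4 hours, 37° C.). Running buffer: 10 mM HEPES pH 7.5, 150 mM NaCl, 0.05% Tween-20, 1% DMSO, with DMSO solvent correction.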

The target in assay [2] is T2, human Siglec-2/CD22 protein (Homo sapiens, UniProt P20273).
T2 construct: purchased Acro Biosystems SI2-H82E3
T2 sequence (P20273 20-847): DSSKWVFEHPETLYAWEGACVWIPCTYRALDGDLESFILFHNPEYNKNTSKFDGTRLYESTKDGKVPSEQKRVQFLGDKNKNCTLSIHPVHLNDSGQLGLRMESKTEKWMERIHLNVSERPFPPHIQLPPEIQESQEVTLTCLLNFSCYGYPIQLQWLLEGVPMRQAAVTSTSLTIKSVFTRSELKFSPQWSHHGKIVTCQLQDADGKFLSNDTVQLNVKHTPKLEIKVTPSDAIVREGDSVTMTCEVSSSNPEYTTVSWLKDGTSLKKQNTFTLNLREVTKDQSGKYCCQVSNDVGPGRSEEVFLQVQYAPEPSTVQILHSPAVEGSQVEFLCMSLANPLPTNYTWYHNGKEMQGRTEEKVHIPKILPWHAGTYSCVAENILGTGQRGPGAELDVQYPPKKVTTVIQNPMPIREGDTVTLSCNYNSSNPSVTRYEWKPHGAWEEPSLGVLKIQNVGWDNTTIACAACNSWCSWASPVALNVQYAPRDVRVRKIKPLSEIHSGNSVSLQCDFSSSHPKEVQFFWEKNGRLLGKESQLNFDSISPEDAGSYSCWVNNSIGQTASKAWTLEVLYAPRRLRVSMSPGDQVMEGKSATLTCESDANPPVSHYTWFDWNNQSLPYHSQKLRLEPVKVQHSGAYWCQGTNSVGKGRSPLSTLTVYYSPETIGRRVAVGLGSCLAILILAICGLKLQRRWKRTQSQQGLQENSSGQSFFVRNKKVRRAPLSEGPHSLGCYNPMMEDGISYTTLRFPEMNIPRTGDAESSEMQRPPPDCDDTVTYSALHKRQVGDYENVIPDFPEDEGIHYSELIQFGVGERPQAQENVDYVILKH
As to the kind of experiment: SPR binding affinity to human CD22. Particulars: steady-state analysis. Put shortly:
as §1

For assay [3], the target named is cynomolgus Siglec-2/CD22 (Macaca fascicularis, UniProt A0A2K5WCZ6). Put plainly: biochemical. The format is binding. The conditions noted are these: SPR, steady-state analysis; read-out: Affinity cyno CD22. Put shortly: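 Compound binding measured by steady-state SPR analysis, 120 s dissociation, in HEPES-NaCl-Tween buffer pH 7.5 containing 1% DMSO, DMSO solvent-corrected. Surface: cyno CD22, sialic acids first stripped by SialoExo for 4 h at 37° C., then amine-coupled onto CM5.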
cynomolgus Siglec-2/CD22, sequence (A0A2K5WCZ6 entry or part of it): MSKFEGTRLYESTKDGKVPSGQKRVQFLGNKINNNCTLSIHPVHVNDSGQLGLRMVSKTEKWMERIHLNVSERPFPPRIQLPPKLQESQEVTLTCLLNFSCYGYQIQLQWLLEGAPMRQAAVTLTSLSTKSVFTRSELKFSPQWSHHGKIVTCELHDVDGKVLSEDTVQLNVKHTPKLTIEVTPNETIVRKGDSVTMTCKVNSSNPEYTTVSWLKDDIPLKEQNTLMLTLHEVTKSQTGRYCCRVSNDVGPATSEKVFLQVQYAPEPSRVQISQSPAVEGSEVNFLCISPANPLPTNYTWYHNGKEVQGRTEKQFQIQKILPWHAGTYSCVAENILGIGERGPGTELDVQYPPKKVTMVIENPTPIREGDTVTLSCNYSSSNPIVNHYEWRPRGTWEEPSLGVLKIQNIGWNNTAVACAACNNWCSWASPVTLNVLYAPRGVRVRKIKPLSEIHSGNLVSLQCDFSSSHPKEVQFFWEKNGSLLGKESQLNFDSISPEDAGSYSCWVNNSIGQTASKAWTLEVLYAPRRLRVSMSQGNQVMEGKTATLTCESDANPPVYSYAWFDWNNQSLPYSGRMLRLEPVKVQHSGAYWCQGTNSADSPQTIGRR

Regarding `C#CCOCCOCCO[C@@]1(C(=O)O)O[C@@H]([C@H](O)[C@H](O)CNC(=O)Cc2ccc(-c3ccccc3)cc2)[C@H](NC(=O)CO)[C@@H](NC(=O)c2cccc(OC)c2)[C@@H]1O` [Compound 36, (2R,3S,4R,5R,6R)-6-((1R,2R)-3-(2-([1,1′-biphenyl]-4-yl)acetamido)-1,2-dihydroxypropyl)-3-hydroxy-5-(2-hydroxyacetamido)-4-(3-methoxybenzamido)-2-(2-(2-(prop-2-yn-1-yloxy)ethoxy)ethoxy)tetrahydro-2H-pyran-2-carboxylic acid], the Kd in assay [1] is 1 to 10 µM; in assay [2], under 1 µM; in assay [3] it was 1000 to 10000 nM.

`C#CCOCCOCCO[C@]1(C(=O)O)C[C@H](O)[C@@H](NC(=O)CO)[C@H]([C@H](O)[C@H](O)CNC(=O)c2ccccc2)O1` [Compound 202, (2R,4S,5R,6R)-6-((1R,2R)-3-benzamido-1,2-dihydroxypropyl)-4-hydroxy-5-(2-hydroxyacetamido)-2-(2-(2-(prop-2-yn-1-yloxy)ethoxy)ethoxy)tetrahydro-2H-pyran-2-carboxylic acid]: the Kd in assay [1] was 1 to 10 µM; in assay [2], over 10 µM; in assay [3], under 1000 nM.

`C#CCOCCOCCO[C@]1(C(=O)O)C[C@H](O)[C@@H](NC(=O)CO)[C@H]([C@H](O)[C@H](O)CNC(=O)Cc2ccc(-c3cc[nH]c(=O)c3)cc2)O1` [Compound 75, (2R,4S,5R,6R)-6-((1R,2R)-1,2-dihydroxy-3-(2-(4-(2-oxo-1,2-dihydropyridin-4-yl)phenyl)acetamido)propyl)-4-hydroxy-5-(2-hydroxyacetamido)-2-(2-(2-(prop-2-yn-1-yloxy)ethoxy)ethoxy)tetrahydro-2H-pyran-2-carboxylic acid]: the results for the Kd in assay [1], in assay [2] and in assay [3] were over 10 µM, over 10 µM and over 10000 nM, respectively.

For `C#CCOCCOCCO[C@]1(C(=O)O)C[C@H](O)[C@@H](NC(=O)CO)[C@H]([C@H](O)[C@H](O)CNC(=O)Cn2cc(-c3ccccc3)nn2)O1` [Compound 177, (2R,4S,5R,6R)-6-((1R,2R)-1,2-dihydroxy-3-(2-(4-phenyl-1H-1,2,3-triazol-1-yl)acetamido)propyl)-4-hydroxy-5-(2-hydroxyacetamido)-2-(2-(2-(prop-2-yn-1-yloxy)ethoxy)ethoxy)tetrahydro-2H-pyran-2-carboxylic acid], the Kd is over 10 µM in assay [1], 1 to 10 µM in assay [2] and 1000 to 10000 nM in assay [3].

In the case of `C#CCOCCCCCCO[C@]1(C(=O)O)C[C@H](O)[C@@H](NCC(=O)N(C)C)[C@H]([C@H](O)[C@H](O)CNC(=O)Cc2ccc(Cl)cc2)O1` [Compound 180, (2R,4S,5R,6R)-6-((1R,2R)-3-(2-(4-chlorophenyl)acetamido)-1,2-dihydroxypropyl)-5-((2-(dimethylamino)-2-oxoethyl)amino)-4-hydroxy-2-((6-(prop-2-yn-1-yloxy)hexyl)oxy)tetrahydro-2H-pyran-2-carboxylic acid], the Kd was 1 to 10 µM in assay [1], over 10 µM in assay [2] and 1000 to 10000 nM in assay [3].

On to `C#CCCOc1ccc(CO[C@]2(C(=O)O)C[C@H](O)[C@@H](NC(=O)CO)[C@H]([C@H](O)[C@H](O)CNC(=O)Cc3cccc(N4CCOCC4)c3)O2)cc1` [Compound 140, (2R,4S,5R,6R)-2-((4-(but-3-yn-1-yloxy)benzyl)oxy)-6-((1R,2R)-1,2-dihydroxy-3-(2-(3-morpholinophenyl)acetamido)propyl)-4-hydroxy-5-(2-hydroxyacetamido)tetrahydro-2H-pyran-2-carboxylic acid], for which the Kd in assay [1] lay within 1 to 10 µM; in assay [2] it was 1 to 10 µM; in assay [3], 1000 to 10000 nM.

Take `CC(=O)NCCOCCOCCOCCOCCC(=O)NCCOCCOCCO[C@]1(C(=O)O)C[C@H](O)[C@@H](NC(=O)CO)[C@H]([C@H](O)[C@H](O)CNC(=O)Cc2ccc(-c3ccccc3)cc2)O1` [Compound 236, (2R,4S,5R,6R)-6-((1R,2R)-3-(2-([1,1′-biphenyl]-4-yl)acetamido)-1,2-dihydroxypropyl)-2-((2,18-dioxo-6,9,12,15,22,25-hexaoxa-3,19-diazaheptacosan-27-yl)oxy)-4-hydroxy-5-(2-hydroxyacetamido) tetrahydro-2H-pyran-2-carboxylic acid]: the Kd fell in the range of 1 to 10 µM in assay [1], 1 to 10 µM in assay [2] and 1000 to 10000 nM in assay [3].

On to `C#CCCOc1ccc(CO[C@]2(C(=O)O)C[C@H](O)[C@@H](NC(=O)CO)[C@H]([C@H](O)[C@H](O)CNC(=O)C(F)(F)c3ccccc3)O2)cc1` [Compound 172, (2R,4S,5R,6R)-2-((4-(but-3-yn-1-yloxy)benzyl)oxy)-6-((1R,2R)-3-(2,2-difluoro-2-phenylacetamido)-1,2-dihydroxypropyl)-4-hydroxy-5-(2-hydroxyacetamido)tetrahydro-2H-pyran-2-carboxylic acid], for which the Kd lay within 1 to 10 µM in assay [1], 1 to 10 µM in assay [2] and 1000 to 10000 nM in assay [3].

Regarding `C#CCOCCCCCCO[C@]1(C(=O)O)C[C@H](O)[C@@H](NC(=O)CO)[C@H]([C@H](O)[C@H](O)CNC(=O)Cc2ccc(C(C)(C)C)cc2)O1` [Compound 160, (2R,4S,5R,6R)-6-((1R,2R)-3-(2-(4-(tert-butyl)phenyl)acetamido)-1,2-dihydroxypropyl)-4-hydroxy-5-(2-hydroxyacetamido)-2-((6-(prop-2-yn-1-yloxy)hexyl)oxy)tetrahydro-2H-pyran-2-carboxylic acid], the Kd in assay [1] is 1 to 10 µM; in assay [2], under 1 µM; in assay [3], under 1000 nM.

As to `C#CCOCCOCCO[C@]1(C(=O)O)C[C@H](O)[C@@H](NC(=O)CO)[C@H]([C@H](O)[C@H](O)CNC(=O)Cc2ccc(-c3ccc(=O)[nH]c3)cc2)O1` [Compound 74, (2R,4S,5R,6R)-6-((1R,2R)-1,2-dihydroxy-3-(2-(4-(6-oxo-1,6-dihydropyridin-3-yl)phenyl)acetamido)propyl)-4-hydroxy-5-(2-hydroxyacetamido)-2-(2-(2-(prop-2-yn-1-yloxy)ethoxy)ethoxy)tetrahydro-2H-pyran-2-carboxylic acid], the Kd in assay [1] lay within 1 to 10 µM; in assay [2] it was 1 to 10 µM; in assay [3], 1000 to 10000 nM.

As for `C#CCOc1cccc(-c2cn([C@]3(C(=O)O)C[C@H](O)[C@@H](NC(=O)CO)[C@H]([C@H](O)[C@H](O)CNC(=O)Cc4ccc(-c5ccc(O)cc5)cc4)O3)nn2)c1` [Compound 60, (2R,4S,5R,6R)-6-((1R,2R)-1,2-dihydroxy-3-(2-(4′-hydroxy-[1,1′-biphenyl]-4-yl)acetamido)propyl)-4-hydroxy-5-(2-hydroxyacetamido)-2-(4-(3-(prop-2-yn-1-yloxy)phenyl)-1H-1,2,3-triazol-1-yl)tetrahydro-2H-pyran-2-carboxylic acid], the Kd in assay [1] was 1 to 10 µM; in assay [2], 1 to 10 µM; in assay [3], 1000 to 10000 nM.

As for `C#CCOCCOCCO[C@]1(C(=O)O)C[C@H](O)[C@@H](NC(=O)CNC(C)=O)[C@H]([C@H](O)[C@H](O)CNC(=O)Cc2ccc(-c3ccc(O)cc3)cc2)O1` [Compound 57, (2R,4S,5R,6R)-5-(2-acetamidoacetamido)-6-((1R,2R)-1,2-dihydroxy-3-(2-(4′-hydroxy-[1,1′-biphenyl]-4-yl)acetamido)propyl)-4-hydroxy-2-(2-(2-(prop-2-yn-1-yloxy)ethoxy)ethoxy)tetrahydro-2H-pyran-2-carboxylic acid], the Kd was over 10 µM in assay [1], 1 to 10 µM in assay [2] and 1000 to 10000 nM in assay [3].
